Holding throughout (type): in vivo
The subject of test [1] is velvetleaf (Abutilon theophrasti Medic.). The test can be described thus: Test Example 14: pot test, soil and foliar treatment, visual growth inhibition. The conditions noted are these: read-out: Growth inhibition rate (%) of velvetleaf Measured value. The source says:
(§1) Upland field soil was put into a 1/1,000,000 ha pot, and seeds of velvetleaf (Abutilon theophrasti Medic.) were sown. When the velvetleaf reached 4.0 to 4.3-leaf stage, seeds of velvetleaf were further sown in the same pot assuming conditions such that weeds would later grow. On the next day, predetermined amounts of ONEHOPE NYUZAI (tradename), Click (tradename), Callisto (tradename), Mikado (tradename), a wettable powder containing bicyclopyrone as an active ingredient and Clio (tradename) were diluted with water in an amount corresponding to 300 L/ha and applied for soil treatment and for foliar treatment by a small sprayer.
On the 31 st day after treatment, the state of growth of the velvetleaf was visually observed to determine the growth inhibition rate (%). The growth inhibition rate (%) (measured value) and the growth inhibition rate (%) calculated in the same manner as in the above Test Example 1 are shown in Table 14.

Test [2] concerns Japanese millet (Echinochloa utilis Ohwi et Yabuno). The experiment in a line: Test Example 13: pot test, soil and foliar treatment, visual growth inhibition. Conditions: read-out: Growth inhibition rate (%) of Japanese millet Measured value. The procedure:
Upland field soil was put into a 1/1,000,000 ha pot, and seeds of Japanese millet (Echinochloa utilis Ohwi et Yabuno) were sown. When the Japanese millet reached 3.8 to 4.0-leaf stage, seeds of Japanese millet were further sown in the same pot. On the next day, predetermined amounts of ONEHOPE NYUZAI (tradename), Click (tradename) and a wettable powder containing bicyclopyrone prepared in accordance with a conventional formulation method were diluted with water (in an amount corresponding to 1,000 L/ha) and applied for soil treatment and for foliar treatment by a small sprayer.
On the 28th day after treatment, the state of growth of the Japanese millet was visually observed to determine the growth inhibition rate (%). The growth inhibition rate (%) (measured value) and the growth inhibition rate (%) calculated in the same manner as in the above Test Example 1 are shown in Table 13.

Test [3] concerns wild oat (Avena fatua L.). The experiment in a line: Test Example 4: pot test, soil treatment, visual growth inhibition. Conditions: soil, read-out: Growth inhibition rate (%) of wild oat Measured value. Here is the method:
Upland field soil was put into a 1/1,000,000 ha pot, and seeds of wild oat (Avena fatua L.) were sown. On the next day, predetermined amounts of ONEHOPE NYUZAI (tradename), Click (tradename) and a wettable powder containing bicyclopyrone prepared in accordance with a conventional formulation method were diluted with water (in an amount corresponding to 1,000 L/ha) and applied for soil treatment by a small sprayer.
On the 28th day after treatment, the state of growth of the wild oat was visually observed to determine the growth inhibition rate (%). The growth inhibition rate (%) (measured value) and the growth inhibition rate (%) calculated in the same manner as in the above Test Example 1 are shown in Table 4.

The subject of test [4] is velvetleaf (Abutilon theophrasti Medic.). The experiment in a line: Test Example 16: pot test, soil and foliar treatment, visual growth inhibition. The conditions noted are these: read-out: Growth inhibition rate (%) of velvetleaf Measured value.
From the text: as §1, with “Three days later,” for “On the next day,”
On the 29th day after treatment, the state of growth of the velvetleaf was visually observed to determine the growth inhibition rate (%). The growth inhibition rate (%) (measured value) and the growth inhibition rate (%) calculated in the same manner as in the above Test Example 1 are shown in Table 16.

Test [5] has as its system korean lespedeza (Kummerowia stipulacea (Maxim.) Makino). The test can be described thus: Test Example 6: pot test, soil treatment, visual growth inhibition. The conditions noted are these: soil, read-out: Growth inhibition rate (%) of korean lespedeza Measured value. The procedure:
Upland field soil was put into a 1/300,000 ha pot, and seeds of korean lespedeza (Kummerowia stipulacea (Maxim.) Makino) were sown. On the next day, predetermined amounts of ONEHOPE NYUZAI (tradename), Click (tradename), Mikado (tradename) and a wettable powder containing bicyclopyrone prepared in accordance with a conventional formulation method were diluted with water (in an amount corresponding to 1,000 L/ha) and applied for soil treatment by a small sprayer.
On the 14th day after treatment, the state of growth of the korean lespedeza was visually observed to determine the growth inhibition rate (%). The growth inhibition rate (%) (measured value) and the growth inhibition rate (%) calculated in the same manner as in the above Test Example 1 are shown in Table 6.

Test [6] concerns Japanese millet (Echinochloa utilis Ohwi et Yabuno). The experiment in a line: Test Example 9: pot test, soil treatment, visual growth inhibition. The conditions noted are these: soil, read-out: Growth inhibition rate (%) of Japanese millet Measured value. The procedure:
Upland field soil was put into a 1/300,000 ha pot, and seeds of Japanese millet (Echinochloa utilis Ohwi et Yabuno) were sown. On the next day, predetermined amounts of ONEHOPE NYUZAI (tradename), Click (tradename), Mikado (tradename) and a wettable powder containing bicyclopyrone prepared in accordance with a conventional formulation method were diluted with water (in an amount corresponding to 1,000 L/ha) and applied for soil treatment by a small sprayer.
On the 28th day after treatment, the state of growth of the Japanese millet was visually observed to determine the growth inhibition rate (%). The growth inhibition rate (%) (measured value) and the growth inhibition rate (%) calculated in the same manner as in the above Test Example 1 are shown in Table 9.

Test [7] concerns sunn-hemp (Crotalaria juncea L.). The test can be described thus: Test Example 7: pot test, soil treatment, visual growth inhibition. Conditions: soil, read-out: Growth inhibition rate (%) of sunn-hemp Measured value. Here is the method: Upland field soil was put into a 1/300,000 ha pot, and seeds of sunn-hemp (Crotalaria juncea L.) were sown. On the next day, predetermined amounts of ONEHOPE NYUZAI (tradename), Click (tradename), Mikado (tradename) and a wettable powder containing bicyclopyrone prepared in accordance with a conventional formulation method were diluted with water (in an amount corresponding to 1,000 L/ha) and applied for soil treatment by a small sprayer.
On the 28th day after treatment, the state of growth of the sunn-hemp was visually observed to determine the growth inhibition rate (%). The growth inhibition rate (%) (measured value) and the growth inhibition rate (%) calculated in the same manner as in the above Test Example 1 are shown in Table 7.

Test [8] relates to annual ragweed (Ambrosia artemisiifolia L.). The experiment in a line: Test Example 11: pot test, soil treatment, visual growth inhibition. The conditions noted are these: soil, read-out: Growth inhibition rate (%) of annual ragweed Measured value. The procedure:
Upland field soil was put into a 1/300,000 ha pot, and seeds of annual ragweed (Ambrosia artemisiifolia L.) were sown. On the next day, predetermined amounts of ONEHOPE NYUZAI (tradename), Click (tradename), Mikado (tradename) and a wettable powder containing bicyclopyrone prepared in accordance with a conventional formulation method were diluted with water (in an amount corresponding to 1,000 L/ha) and applied for soil treatment by a small sprayer.
On the 28th day after treatment, the state of growth of the annual ragweed was visually observed to determine the growth inhibition rate (%). The growth inhibition rate (%) (measured value) and the growth inhibition rate (%) calculated in the same manner as in the above Test Example 1 are shown in Table 11.

Test [9] deals with guinea grass (Panicum maximum Jacq.). The experiment in a line: Test Example 17: pot test, soil and foliar treatment, visual growth inhibition. The conditions noted are these: Megathyrsus maximus, 1000 g/ha, 29th day after treatment, read-out: Growth inhibition rate (%) of guinea grass Measured value. Here is the method:
Upland field soil was put into a 1/1,000,000 ha pot, and seeds of guinea grass (Panicum maximum Jacq.) were sown. When the guinea grass reached 5.2 to 6.0-leaf stage, seeds of guinea grass were further sown in the same pot assuming conditions such that weeds would later grow. Three days later, predetermined amounts of ONEHOPE NYUZAI (tradename), Click (tradename) and Spectrum (tradename) were diluted with water in an amount corresponding to 300 L/ha and applied for soil treatment and for foliar treatment by a small sprayer.
On the 29th day after treatment, the state of growth of the guinea grass was visually observed to determine the growth inhibition rate (%). The growth inhibition rate (%) (measured value) and the growth inhibition rate (%) calculated in the same manner as in the above Test Example 1 are shown in Table 17.

The test system of test [10] is rostrate sesbania (Sesbania rostrata Bremek. & Oberm.). The test can be described thus: Test Example 8: pot test, soil treatment, visual growth inhibition. Conditions: 2000 g/ha, soil treatment, 28th day after treatment, read-out: Growth inhibition rate (%) of rostrate sesbania Measured value. The procedure:
Upland field soil was put into a 1/300,000 ha pot, and seeds of rostrate sesbania (Sesbania rostrata Bremek. & Oberm.) were sown. On the next day, predetermined amounts of ONEHOPE NYUZAI (tradename), Click (tradename), Spectrum (tradename) and Clio (tradename) were diluted with water (in an amount corresponding to 1,000 L/ha) and applied for soil treatment by a small sprayer.
On the 28th day after treatment, the state of growth of the rostrate sesbania was visually observed to determine the growth inhibition rate (%). The growth inhibition rate (%) (measured value) and the growth inhibition rate (%) calculated in the same manner as in the above Test Example 1 are shown in Table 8.

Test [11] has as its system prickly sida (Sida spinosa L.). The experiment in a line: Test Example 10: pot test, soil treatment, visual growth inhibition. The conditions noted are these: 200 g/ha, soil treatment, 28th day after treatment, read-out: Growth inhibition rate (%) of prickly sida Measured value. The procedure:
Upland field soil was put into a 1/300,000 ha pot, and seeds of prickly sida (Sida spinosa L.) were sown. On the next day, predetermined amounts of ONEHOPE NYUZAI (tradename), Click (tradename), Spectrum (tradename), Callisto (tradename) and Clio (tradename) were diluted with water (in an amount corresponding to 1,000 L/ha) and applied for soil treatment by a small sprayer.
On the 28th day after treatment, the state of growth of the prickly sida was visually observed to determine the growth inhibition rate (%). The growth inhibition rate (%) (measured value) and the growth inhibition rate (%) calculated in the same manner as in the above Test Example 1 are shown in Table 10.

In test [12] the test system is common cocklebur (Xanthium strumarium L.). The experiment in a line: Test Example 1: pot test, foliar treatment, visual growth inhibition. The conditions noted are these: 1000 g/ha, foliar treatment at 4.3 to 4.8-leaf stage, 22nd day after treatment, read-out: Growth inhibition rate (%) of common cocklebur Measured value. From the text:
In the present invention, a synergistic effect means a higher herbicidal activity of three active ingredients combined, than the simple sum of the respective herbicidal activities of the three active ingredients (the expected activity). The activity expected by the combination of three active ingredients can be calculated as follows (Colby S.R., "Weed", vol. 15, p. 20-22, 1967). […] Upland field soil was put into a 1/300,000 ha pot, and seeds of common cocklebur (Xanthium strumarium L.) were sown. […] Click, manufactured by BASF) and EC formulation containing dimethenamid-P as an active ingredient (tradename: Spectrum, manufactured by BASF) were diluted with water (in an amount corresponding to 1,000 L/ha) and applied for foliar treatment by a small sprayer. On the 22nd day after treatment, the state of growth of the common cocklebur was visually observed to determine the growth inhibition rate (%) in accordance with the following evalution standard. The growth inhibition rate (%) (measured value) and the growth inhibition rate (%) (calculated value) calculated by the Colby's formula are shown in Table 1.

Test [13] deals with guinea grass (Panicum maximum Jacq.). The test can be described thus: Test Example 15: pot test, soil and foliar treatment, visual growth inhibition. Conditions: Megathyrsus maximus, 31st day after treatment, read-out: Growth inhibition rate (%) of guinea grass Measured value. Here is the method:
Upland field soil was put into a 1/1,000,000 ha pot, and seeds of guinea grass (Panicum maximum Jacq.) were sown. When the guinea grass reached 5.2 to 6.0-leaf stage, seeds of guinea grass were further sown in the same pot assuming conditions such that weeds would later grow. On the next day, predetermined amounts of ONEHOPE NYUZAI (tradename), Click (tradename), Spectrum (tradename) and Cadou (tradename) were diluted with water in an amount corresponding to 300 L/ha and applied for soil treatment and for foliar treatment by a small sprayer.
On the 31 st day after treatment, the state of growth of the guinea grass was visually observed to determine the growth inhibition rate (%). The growth inhibition rate (%) (measured value) and the growth inhibition rate (%) calculated in the same manner as in the above Test Example 1 are shown in Table 15.

On to `COCCOCc1nc(C(F)(F)F)ccc1C(=O)C1=C(O)C2CCC(C2)C1=O` (stereo not drawn) [Bicyclopyrone, 4-hydroxy-3-{2-[(2-methoxyethoxy)methyl]-6-(trifluoromethyl)-3-pyridylcarbonyl}bicyclo[3.2.1]oct-3-en-2-one], for which the inhibition at 50 g/ha in [1] came to 88%. In addition, the inhibition at 150 g/ha in [1] amounted to 93%. Moreover, the results for the inhibition at 100 g/ha in test [2], in test [3] and in [8] were 78%, 25% and 88%, respectively. In test [4], the inhibition at 75 g/ha was 89%. The inhibition at 400 g/ha in test [5] was determined as 15%. In addition, the inhibition at 25 g/ha in [6] is 83%; in [7] it was 20%.
Take `COC[C@H](C)N(C(=O)CCl)c1c(C)csc1C` [Dimethenamid-P, (S)-2-chloro-N-(2,4-dimethyl-3-thienyl)-N-(2-methoxy-1-methylethyl)acetamide]: the values for the inhibition at 1000 g/ha in test [9], in [12] and in test [13] (1000 g/ha) were 55%, 0% and 60%, respectively. For the same compound, in test [10], the inhibition at 2000 g/ha is 40%. The inhibition at 200 g/ha in [11] came to 0%. For the same compound, in test [13] (500 g/ha), the inhibition at 500 g/ha came out at 57%.

Source of the values: EP2832223A1, “HERBICIDAL COMPOSITION” (Ishihara Sangyo Kaisha, Ltd., priority 2012, dated 2013).
